Laboratory results: US20230134228A1, “SYNERGISTIC HERBAL COMPOSITION AS A BROAD-SPECTRUM PROPHYLACTIC MAJOR AND METHOD TO PREPARE THE SAME” (priority 2020, published 2023)

Columns and labels:
Type in all cases: biochemical
[1] = Lipid peroxidation (TBARS) inhibition assay; conditions: for TBARS Inhibition (%): Table 7
[2] = Hydroxyl radical scavenging activity; conditions: for TBARS Inhibition (%): Table 6 (hydroxyl radical scavenging)
[3] = Anti-oxidant assay (DPPH radical scavenging activity)

O=C1O[C@H]([C@@H](O)CO)C(O)=C1O [Ascorbic Acid, ascorbic acid]
Inhibitory concentration [IC50], lipid peroxidation (TBARS) [1]: 20.32 µg/mL
TBARS Inhibition (%) ([1]; Conc. 6.25 μl/ml): 36.0%
TBARS Inhibition (%) ([1]; Conc. 12.5 μl/ml): 47.69%
TBARS Inhibition (%) ([1]; Conc. 25 μl/ml): 54.76%
TBARS Inhibition (%) ([1]; Conc. 50 μl/ml): 62.15%
TBARS Inhibition (%) ([1]; Conc. 100 μl/ml): 68.92%
TBARS Inhibition (%) ([1]; Conc. 200 μl/ml): 72.61%
Inhibitory concentration [IC50], hydroxyl radical [2]: 30.83 µg/mL
TBARS Inhibition (%) ([2]; Conc. 6.25 μl/ml): 35.27%
TBARS Inhibition (%) ([2]; Conc. 12.5 μl/ml): 42.80%
TBARS Inhibition (%) ([2]; Conc. 25 μl/ml): 53.76%
TBARS Inhibition (%) ([2]; Conc. 50 μl/ml): 64.72%
TBARS Inhibition (%) ([2]; Conc. 100 μl/ml): 64.43%
TBARS Inhibition (%) ([2]; Conc. 200 μl/ml): 76.71%
DPPH radical inhibition (%) ([3]; Conc. 3.125 μl/ml): 29.93%
DPPH radical inhibition (%) ([3]; Conc. 6.25 μl/ml): 52.42%
DPPH radical inhibition (%) ([3]; Conc. 12.5 μl/ml): 71.28%
DPPH radical inhibition (%) ([3]; Conc. 25 μl/ml): 87.88%
DPPH radical inhibition (%) ([3]; Conc. 50 μl/ml): 92.05%
DPPH radical inhibition (%) ([3]; Conc. 100 μl/ml): 95.01%
DPPH radical inhibition (%) ([3]; Conc. 200 μl/ml): 29.93%
Inhibitory concentration [IC50], DPPH ([3]; from graph of % inhibition vs concentration): 17.30 µg/mL
